Columns and labels:
1D4-tagged WT TRPV2 = molecular target: T1, 1D4-tagged WT TRPV2 (Rattus norvegicus, UniProt Q9WUD2); test: 3H-RTx binding to yeast membranes containing 1D4-tagged WT TRPV2
T1 construct: made in house; host or cells: S. cerevisiae BJ5457, isolated membranes
T1 sequence (Q9WUD2 1-761): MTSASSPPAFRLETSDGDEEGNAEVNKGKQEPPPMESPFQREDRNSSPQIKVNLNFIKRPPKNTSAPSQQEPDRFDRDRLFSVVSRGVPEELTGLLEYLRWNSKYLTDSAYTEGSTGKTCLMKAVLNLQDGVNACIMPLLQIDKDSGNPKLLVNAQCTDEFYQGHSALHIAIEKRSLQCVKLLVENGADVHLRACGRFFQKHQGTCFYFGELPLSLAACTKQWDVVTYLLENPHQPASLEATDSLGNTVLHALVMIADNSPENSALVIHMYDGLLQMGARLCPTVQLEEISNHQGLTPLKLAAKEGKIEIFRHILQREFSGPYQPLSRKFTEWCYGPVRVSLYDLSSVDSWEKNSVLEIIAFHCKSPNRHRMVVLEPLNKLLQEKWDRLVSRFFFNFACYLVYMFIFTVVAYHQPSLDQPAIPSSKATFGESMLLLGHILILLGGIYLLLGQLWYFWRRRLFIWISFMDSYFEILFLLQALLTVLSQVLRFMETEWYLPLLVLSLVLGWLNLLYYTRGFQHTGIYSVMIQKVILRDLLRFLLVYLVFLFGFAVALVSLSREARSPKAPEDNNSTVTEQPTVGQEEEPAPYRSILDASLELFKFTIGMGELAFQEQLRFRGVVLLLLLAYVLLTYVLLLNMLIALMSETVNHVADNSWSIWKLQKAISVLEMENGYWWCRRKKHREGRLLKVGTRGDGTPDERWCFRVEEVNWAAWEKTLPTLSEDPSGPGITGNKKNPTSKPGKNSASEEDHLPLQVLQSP
Source text: To examine the strength of RTx binding to the TRPV2 channel, we undertook binding assays after expressing 1D4-tagged TRPV2 and TRPV2 QM in S. cerevisiae and isolating yeast membranes, similar to the experiments described above with TRPV1 (Figure 2). […] To examine the relative importance of the four residues for mediating RTx sensitivity in the TRPV2 QM, we constructed triple mutants and evaluated their sensitivity to RTx electrophysiologically.
The full-length TRPV1 and TRPV2 channels with 1D4 affinity tags ([…]) on their C-termini were cloned into the YEpHIS vector and expressed in the BJ5457 strain of S. cerevisiae using the strong constitutively active PMA1 promoter, as previously described ([Moiseenkova-Bell et al., 2008]). After 48 hr of expression at 30°C in YPD media, cells were harvested by centrifugation and re-suspended in PBS buffer, supplemented with complete protease inhibitor cocktail (Roche, Indianapolis, IN) and 4-amidinophenylmethanesulfonyl fluoride hydrochloride (APMSF) (Sigma-Aldrich, St. Louis, MO). Cells were broken by passing through an Avestin homogenizer at the pressure of 35 kpsi, cell lysate was cleared by centrifugation at 8,000 g for 15 min and membranes were isolated by ultracentrifugation at 190,000 g for 1 hr. […]
S. cerevisiae cells overexpressing TRPV1 constructs to be used in ligand binding assays on intact cells (Figure 1E,F) were grown as for small scale expression trials. 24 hr after protein induction cells were spun down at 4000g, the supernatant was removed and the pellet resuspended in 1x PBS, normalizing OD600 to 75 for each sample, and aliquoted for storage at -80°C. ^3H-RTx binding assays on cells were performed at 37°C as previously described ([Feng et al., 2015]), but where non-specific binding of RTx was measured using cells expressing GFP alone. […] Data for binding of RTx to membranes was corrected for non-specific binding, determined using either excess non-radioactive ligand or heat inactivation of the protein, as previously described ([Feng et al., 2015]). […]

TRPV1 S512F/E570Q = molecular target: T2, TRPV1 S512F/E570Q (Rattus norvegicus, UniProt O35433, E570Q/S512F); test: Two-electrode voltage-clamp in Xenopus oocytes, TRPV1 S512F/E570Q; type: cell-based; conditions: 100 nM RTx
T2 construct: expressed in transfected cells; host or cells: Xenopus oocytes (cRNA injection)
T2 sequence (O35433 whole entry S512F/E570Q): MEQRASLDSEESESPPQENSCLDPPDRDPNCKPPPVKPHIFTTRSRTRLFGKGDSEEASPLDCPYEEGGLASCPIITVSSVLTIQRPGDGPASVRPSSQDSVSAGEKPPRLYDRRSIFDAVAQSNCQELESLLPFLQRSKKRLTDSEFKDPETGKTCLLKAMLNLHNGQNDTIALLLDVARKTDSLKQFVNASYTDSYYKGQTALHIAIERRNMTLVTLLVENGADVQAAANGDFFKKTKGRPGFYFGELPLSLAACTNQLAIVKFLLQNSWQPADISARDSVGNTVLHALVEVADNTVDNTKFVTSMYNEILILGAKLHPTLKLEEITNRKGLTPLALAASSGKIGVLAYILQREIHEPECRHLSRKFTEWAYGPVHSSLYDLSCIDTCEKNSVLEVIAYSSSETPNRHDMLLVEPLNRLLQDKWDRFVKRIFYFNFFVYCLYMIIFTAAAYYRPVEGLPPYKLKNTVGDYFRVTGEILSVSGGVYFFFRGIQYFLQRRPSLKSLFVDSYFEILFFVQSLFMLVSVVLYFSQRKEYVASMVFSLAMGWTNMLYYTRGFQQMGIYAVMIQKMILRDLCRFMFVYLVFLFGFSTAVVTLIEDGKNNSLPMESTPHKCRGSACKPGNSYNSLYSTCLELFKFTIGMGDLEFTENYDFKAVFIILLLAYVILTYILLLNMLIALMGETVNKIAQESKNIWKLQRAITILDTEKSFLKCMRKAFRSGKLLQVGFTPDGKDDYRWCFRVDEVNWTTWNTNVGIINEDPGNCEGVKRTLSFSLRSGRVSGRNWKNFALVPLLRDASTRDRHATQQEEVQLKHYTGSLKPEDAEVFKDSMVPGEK
Source text: To further investigate the putative vanilloid binding pocket in TRPV1, we inspected the cryo-EM structure of TRPV1, looking for residues that are located nearby to the putative RTx density (Figure 1B; regions/residues highlighted in yellow) and that differ between TRPV1 and TRPV2 channels (Figure 3—figure supplement 1; regions highlighted in magenta). […] To quantify the contribution of each of these residues to TRPV1 channel activation by RTx under our experimental conditions, we mutated each to the corresponding residue in TRPV2. We then expressed each construct in oocytes and used the two electrode voltage-clamp technique to study activation by RTx and by the non-specific TRPV channel activator 2-APB. We recorded time courses for channel activation by each agonist while stepping the membrane potential from −60 to +60 mV every 3 s from a holding potential of 0 mV using an external recording solution containing 100 mM KCl (internal K^+ concentration in a healthy oocyte is 100 mM) (Figure 3A, left). We also recorded current-voltage (I-V) relations by stepping over a wider range of voltages in the absence and presence of activators, or in the presence of ruthenium red (RR), a non-specific inhibitor of TRP channels (Figure 3A, right). […]

## C=C(C)[C@]12C[C@@H](C)[C@@]34O[C@](Cc5ccccc5)(O[C@@H]1[C@@H]3C=C(COC(=O)Cc1ccc(O)c(OC)c1)C[C@]1(O)C(=O)C(C)=C[C@@H]41)O2 [RTx, resiniferatoxin]
1D4-tagged WT TRPV2
  RTx binding in words: weak binding
1D4-tagged WT TRPV2; 37°C
  Hill slope (nH): 0.9
1D4-tagged WT TRPV2; 37°C, read-out: Kd of 3H-RTx binding (Hill fit)
  Kd: > 200 nM
TRPV1 S512F/E570Q
  channel activation by RTx: retained RTx sensitivity

Reference: publication PMC4907692, “Engineering vanilloid-sensitivity into the rat TRPV2 channel” (eLife, 2016)
